Source: ChEMBL document CHEMBL1201862, “PubChem BioAssay data set” (2004)
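Dose response: 5 concentrations. Exposure: 48 h. Format: 96-well plates. Endpoint: linear interpolation; highest concentration if not reached. GI50 marks 50% less growth.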 Calls of active or inactive are those of the source. Rule as the data show it: active = GI50 up to about 1.1 µM and inactive = higher.

Legend:
Experiment in all cases: NCI tumour cell line growth inhibition, 48 h
OVCAR-8 = tested on: OVCAR-8
HCC 2998 = tested on: HCC 2998
MDA-MB-231 = tested on: MDA-MB-231
COLO 205 = tested on: COLO 205
A549 = tested on: A549
M14 = tested on: M14
SK-OV-3 = tested on: SK-OV-3
TK-10 = tested on: TK-10
OVCAR-4 = tested on: OVCAR-4
RXF 393 = tested on: RXF 393
UACC-62 = tested on: UACC-62
SNB-19 = tested on: SNB-19
Malme-3M = tested on: Malme-3M
SK-MEL-28 = tested on: SK-MEL-28
HL-60 = tested on: HL-60
K562 = tested on: K562
SN12C = tested on: SN12C
SR = tested on: SR

Row | SMILES | GI50 (OVCAR-8) | GI50 (HCC 2998) | GI50 (MDA-MB-231) | GI50 (COLO 205) | GI50 (A549) | GI50 (M14) | GI50 (SK-OV-3) | GI50 (TK-10) | GI50 (OVCAR-4) | GI50 (RXF 393) | GI50 (UACC-62) | GI50 (SNB-19) | GI50 (Malme-3M) | GI50 (SK-MEL-28) | GI50 (HL-60) | GI50 (K562) | GI50 (SN12C) | GI50 (SR)
1 | Cn1nc(S(N)(=O)=O)s/c1=N/S(=O)(=O)c1ccc(N)cc1 | > 100 µM (inactive) | > 100 µM (inactive) | > 100 µM (inactive) | > 100 µM (inactive) | > 100 µM (inactive) | > 100 µM (inactive) | > 100 µM (inactive) | > 100 µM (inactive) | > 100 µM (inactive) | > 100 µM (inactive) | > 100 µM (inactive) | > 100 µM (inactive) | > 100 µM (inactive) | > 100 µM (inactive) |  |  |  | 
2 | CC1=C(C(=O)Nc2ccc([N+](=O)[O-])cc2)C(c2ccc(N(C)C)cc2)C(C(=O)Nc2ccc([N+](=O)[O-])cc2)=C(C)N1 | 26.6 µM (inactive) | 12 µM (inactive) |  | 15.4 µM (inactive) | 21.2 µM (inactive) | 16.9 µM (inactive) | 23.4 µM (inactive) | 32 µM (inactive) | 21.1 µM (inactive) | 12.1 µM (inactive) |  | 36.4 µM (inactive) | 23.3 µM (inactive) | 13.5 µM (inactive) | 13.1 µM (inactive) | 6.68 µM (inactive) | > 10 µM (inactive) | 
3 | COC(=O)c1ccc(Cc2ccc(C(=O)OC)o2)o1 | > 378 µM (inactive) | > 378 µM (inactive) |  | > 378 µM (inactive) | > 378 µM (inactive) |  | > 378 µM (inactive) | > 378 µM (inactive) |  | 282 µM (inactive) | > 378 µM (inactive) | 327 µM (inactive) | > 378 µM (inactive) | > 378 µM (inactive) | > 378 µM (inactive) | > 378 µM (inactive) | > 378 µM (inactive) | > 378 µM (inactive)
4 | Clc1ccc(CN2COc3c(cc(Cl)c4cccnc34)C2)cc1 | 2.04 µM (inactive) | 4.3 µM (inactive) |  | 16.2 µM (inactive) | 2.39 µM (inactive) | 1.68 µM (inactive) | 2.77 µM (inactive) | 4.57 µM (inactive) | 3.33 µM (inactive) | 1.58 µM (inactive) | 1.55 µM (inactive) | 4.24 µM (inactive) | 2.34 µM (inactive) | 2.57 µM (inactive) | 0.546 µM (active) | 1.52 µM (inactive) | 4.23 µM (inactive) | 1.91 µM (inactive)
5 | O=C1CCC2SC1CCC2=O | > 100 µM (inactive) | > 100 µM (inactive) | > 100 µM (inactive) | > 100 µM (inactive) | > 100 µM (inactive) | > 100 µM (inactive) | > 100 µM (inactive) | > 100 µM (inactive) | > 100 µM (inactive) | > 100 µM (inactive) |  | > 100 µM (inactive) | > 100 µM (inactive) | > 100 µM (inactive) | > 100 µM (inactive) | > 100 µM (inactive) | > 100 µM (inactive) | 
6 | c1ccc(-c2[nH]c(-c3ccccc3)c(-c3cnccn3)c2-c2cnccn2)cc1 | > 100 µM (inactive) | > 100 µM (inactive) |  | > 100 µM (inactive) | > 100 µM (inactive) | > 100 µM (inactive) | > 100 µM (inactive) | > 100 µM (inactive) | > 100 µM (inactive) | > 100 µM (inactive) | > 100 µM (inactive) | > 100 µM (inactive) | > 100 µM (inactive) | > 100 µM (inactive) | > 100 µM (inactive) | > 100 µM (inactive) | > 100 µM (inactive) | 82.8 µM (inactive)
7 | CC1=C(C(=O)Nc2cccc(C(F)(F)F)c2)C(c2ccccc2F)C(C(=O)Nc2cccc(C(F)(F)F)c2)=C(C)N1 | 9.62 µM (inactive) | 3.31 µM (inactive) |  | 4.82 µM (inactive) | 4.58 µM (inactive) | 4.59 µM (inactive) | 10.4 µM (inactive) | 8.26 µM (inactive) | 3.08 µM (inactive) | 3.57 µM (inactive) |  | 7.16 µM (inactive) | 7.08 µM (inactive) | 11 µM (inactive) | 2.69 µM (inactive) | 3.96 µM (inactive) | 7.96 µM (inactive) | 
8 | Nc1nc2c(nnn2C2C=C(CO)C(O)C2O)c(=O)[nH]1 (configuration not stated) | > 100 µM (inactive) | > 100 µM (inactive) |  | > 100 µM (inactive) | > 100 µM (inactive) | > 100 µM (inactive) | > 100 µM (inactive) | > 100 µM (inactive) | > 100 µM (inactive) | 78 µM (inactive) | 58.6 µM (inactive) | > 100 µM (inactive) | 95.7 µM (inactive) | > 100 µM (inactive) |  | > 100 µM (inactive) | 94.4 µM (inactive) | > 100 µM (inactive)
9 | CO/C=C/c1cc2c(cc1C(OC)OC)OCO2 | > 100 µM (inactive) | > 100 µM (inactive) |  |  | > 100 µM (inactive) | 31.1 µM (inactive) | 26.1 µM (inactive) | 55 µM (inactive) | > 100 µM (inactive) | 40.9 µM (inactive) | 22.6 µM (inactive) | 36.7 µM (inactive) | 53.6 µM (inactive) | > 100 µM (inactive) | 3.56 µM (inactive) | 29.9 µM (inactive) | 79.3 µM (inactive) | 44.6 µM (inactive)
10 | COC(=O)C1=C(c2cc(OC)c(OC)c(OC)c2)OC(c2cc(OC)c(OC)c(OC)c2)C1COC(C)=O (configuration not stated) | 59.7 µM (inactive) | 50.9 µM (inactive) |  | 18.2 µM (inactive) | 51.4 µM (inactive) | 41 µM (inactive) | 44.8 µM (inactive) | 42.4 µM (inactive) | 29.6 µM (inactive) | 40.6 µM (inactive) | 30.5 µM (inactive) | > 100 µM (inactive) | > 100 µM (inactive) | > 100 µM (inactive) | 10.3 µM (inactive) | 24 µM (inactive) | 85.1 µM (inactive) | 16.7 µM (inactive)
11 | N#CC(NNC(=O)Cc1ccccc1)c1cccc(O)c1 (configuration not stated) | > 100 µM (inactive) |  |  | > 100 µM (inactive) | > 100 µM (inactive) | > 100 µM (inactive) | > 100 µM (inactive) | > 100 µM (inactive) | > 100 µM (inactive) | > 100 µM (inactive) | > 100 µM (inactive) |  | > 100 µM (inactive) | > 100 µM (inactive) | > 100 µM (inactive) | > 100 µM (inactive) | > 100 µM (inactive) | > 100 µM (inactive)
12 | CCc1cccc(CC)c1NC(=O)/C(Cl)=C(/Cl)C(=O)O | 18.4 µM (inactive) | > 48.2 µM (inactive) |  | 13.9 µM (inactive) | > 69.5 µM (inactive) | 17.1 µM (inactive) | > 100 µM (inactive) | 34 µM (inactive) | 17.2 µM (inactive) | 28.9 µM (inactive) | 37.4 µM (inactive) | > 100 µM (inactive) | 19 µM (inactive) | 35.3 µM (inactive) | 5.05 µM (inactive) | 11.6 µM (inactive) | 31.1 µM (inactive) | > 44.3 µM (inactive)
13 | CC1=NN(C(=O)Cc2ccccc2)C(=O)/C1=C\c1ccc(O)cc1 | > 100 µM (inactive) | > 100 µM (inactive) |  | > 100 µM (inactive) | > 100 µM (inactive) | > 100 µM (inactive) | > 100 µM (inactive) | > 100 µM (inactive) | > 100 µM (inactive) | > 100 µM (inactive) | > 100 µM (inactive) | > 100 µM (inactive) | > 100 µM (inactive) | > 100 µM (inactive) | > 100 µM (inactive) | > 100 µM (inactive) | > 100 µM (inactive) | 
14 | Cc1ccc(Nc2ccc(Nc3ccc(C)cc3)c3c2C(=O)c2c(O)ccc(O)c2C3=O)cc1 | > 100 µM (inactive) | > 100 µM (inactive) |  | > 100 µM (inactive) | > 100 µM (inactive) | > 100 µM (inactive) | > 100 µM (inactive) | > 100 µM (inactive) | > 100 µM (inactive) | > 100 µM (inactive) | > 100 µM (inactive) | > 100 µM (inactive) | > 100 µM (inactive) | 91.4 µM (inactive) | 80.9 µM (inactive) | > 100 µM (inactive) | > 100 µM (inactive) | 
15 | CC(C)(Oc1ccc2c(=O)cc(-c3ccccc3)oc2c1)C(=O)Nc1c(Cl)cccc1Cl | 29.4 µM (inactive) |  |  |  | 67.1 µM (inactive) | > 100 µM (inactive) | > 100 µM (inactive) | > 100 µM (inactive) |  | < 0.01 µM (active) | > 100 µM (inactive) | > 100 µM (inactive) | > 100 µM (inactive) | > 100 µM (inactive) | 44.3 µM (inactive) | 12.1 µM (inactive) |  | > 100 µM (inactive)
16 | O=C(O)CN(c1ccc(Cl)cc1)S(=O)(=O)c1ccccc1 | > 100 µM (inactive) |  |  | 51.2 µM (inactive) | > 100 µM (inactive) | > 100 µM (inactive) | > 100 µM (inactive) | > 100 µM (inactive) | > 100 µM (inactive) | > 100 µM (inactive) | > 100 µM (inactive) | > 100 µM (inactive) | > 100 µM (inactive) | > 100 µM (inactive) | > 100 µM (inactive) | > 100 µM (inactive) | > 100 µM (inactive) | 
17 | CN1CC(=O)N(C)c2ncn(Cc3ccccc3)c2C1=O | > 100 µM (inactive) | > 100 µM (inactive) |  | > 100 µM (inactive) | > 100 µM (inactive) | > 100 µM (inactive) | > 100 µM (inactive) | > 100 µM (inactive) | > 100 µM (inactive) | > 100 µM (inactive) | > 100 µM (inactive) | > 100 µM (inactive) | > 100 µM (inactive) | > 100 µM (inactive) | > 100 µM (inactive) | > 100 µM (inactive) | > 100 µM (inactive) | > 100 µM (inactive)
